Measurements reported in US12662479B2 (Foghorn Therapeutics Inc., priority 2020, dated 2026).

Key:
[1] = molecular target: T1, HiBit-BRG1 fusion protein (Homo sapiens, UniProt P51532); assay: HiBiT-BRG1 cell-based degradation assay (Nano-Glo HiBiT Lytic Detection, 24 h); settings: HeLa cells expressing HiBit-BRG1 and LgBit; for DC50: read-out: BRG1 HiBit Degradation IC50; for Dmax: HeLa, top dose 30 μM, read-out: BRG1 HiBit Degradation Maximum measured
T1 construct: expressed in transfected cells
T1 sequence (P51532 whole entry, the tested form may be a part): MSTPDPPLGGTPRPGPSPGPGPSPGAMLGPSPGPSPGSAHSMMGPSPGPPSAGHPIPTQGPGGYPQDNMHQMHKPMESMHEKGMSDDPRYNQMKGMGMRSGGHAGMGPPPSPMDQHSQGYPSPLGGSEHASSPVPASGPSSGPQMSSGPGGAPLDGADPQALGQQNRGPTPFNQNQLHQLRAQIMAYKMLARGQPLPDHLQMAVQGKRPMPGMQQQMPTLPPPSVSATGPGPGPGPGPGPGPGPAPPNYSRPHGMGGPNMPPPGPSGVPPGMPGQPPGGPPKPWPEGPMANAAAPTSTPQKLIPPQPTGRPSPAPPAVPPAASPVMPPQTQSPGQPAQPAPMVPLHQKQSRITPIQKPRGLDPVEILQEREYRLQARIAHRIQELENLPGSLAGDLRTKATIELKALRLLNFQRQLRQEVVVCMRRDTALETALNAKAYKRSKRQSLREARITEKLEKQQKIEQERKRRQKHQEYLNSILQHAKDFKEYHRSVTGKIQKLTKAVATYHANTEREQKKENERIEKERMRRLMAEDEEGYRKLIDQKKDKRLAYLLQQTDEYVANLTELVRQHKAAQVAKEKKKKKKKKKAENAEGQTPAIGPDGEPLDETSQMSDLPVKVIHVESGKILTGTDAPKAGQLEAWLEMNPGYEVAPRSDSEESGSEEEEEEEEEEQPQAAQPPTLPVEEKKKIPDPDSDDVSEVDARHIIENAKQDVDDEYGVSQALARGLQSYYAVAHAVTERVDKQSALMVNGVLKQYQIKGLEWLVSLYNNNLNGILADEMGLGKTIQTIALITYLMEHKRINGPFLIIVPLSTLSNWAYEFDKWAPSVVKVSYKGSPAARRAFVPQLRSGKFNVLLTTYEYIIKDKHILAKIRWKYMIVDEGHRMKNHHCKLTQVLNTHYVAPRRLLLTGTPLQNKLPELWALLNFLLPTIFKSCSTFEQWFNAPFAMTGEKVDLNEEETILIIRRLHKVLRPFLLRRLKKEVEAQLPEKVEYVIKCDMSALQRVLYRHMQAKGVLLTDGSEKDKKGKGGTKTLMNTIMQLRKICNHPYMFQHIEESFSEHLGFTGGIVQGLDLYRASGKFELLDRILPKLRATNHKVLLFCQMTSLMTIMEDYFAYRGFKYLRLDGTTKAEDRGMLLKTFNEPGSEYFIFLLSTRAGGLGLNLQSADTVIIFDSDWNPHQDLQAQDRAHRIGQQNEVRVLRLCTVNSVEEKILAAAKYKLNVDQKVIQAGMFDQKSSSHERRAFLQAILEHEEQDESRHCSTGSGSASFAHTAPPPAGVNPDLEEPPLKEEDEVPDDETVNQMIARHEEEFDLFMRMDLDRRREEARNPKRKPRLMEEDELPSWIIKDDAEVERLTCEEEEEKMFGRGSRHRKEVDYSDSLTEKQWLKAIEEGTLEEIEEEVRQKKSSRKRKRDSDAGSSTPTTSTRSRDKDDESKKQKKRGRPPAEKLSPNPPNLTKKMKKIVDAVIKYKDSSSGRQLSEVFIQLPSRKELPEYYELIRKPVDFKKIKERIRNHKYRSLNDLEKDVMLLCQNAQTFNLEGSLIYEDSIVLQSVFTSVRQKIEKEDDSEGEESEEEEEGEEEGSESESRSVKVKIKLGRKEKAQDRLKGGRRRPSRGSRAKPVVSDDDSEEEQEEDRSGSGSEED
Outline: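 Stable HeLa line expressing HiBiT-BRG1 and LgBiT, seeded at 5000 cells/well; luminescence read after lytic Nano-Glo HiBiT reagent and 10 min shaking at RT. % degradation normalised between DMSO (high control) and 2 μM reference BRM/BRG1 degrader (low control).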

HiBit-BRM fusion protein = molecular target: T2, HiBit-BRM fusion protein (Homo sapiens, UniProt P51531); assay: HiBiT-BRM cell-based degradation assay (Nano-Glo HiBiT Lytic Detection, 24 h); settings: HeLa cells expressing HiBiT-BRM; for DC50: read-out: BRM HiBit Degradation IC50; for BRM HiBit Degradation Maximum measured: top dose 30 μM
T2 construct: expressed in transfected cells
T2 sequence (P51531 whole entry, the tested form may be a part): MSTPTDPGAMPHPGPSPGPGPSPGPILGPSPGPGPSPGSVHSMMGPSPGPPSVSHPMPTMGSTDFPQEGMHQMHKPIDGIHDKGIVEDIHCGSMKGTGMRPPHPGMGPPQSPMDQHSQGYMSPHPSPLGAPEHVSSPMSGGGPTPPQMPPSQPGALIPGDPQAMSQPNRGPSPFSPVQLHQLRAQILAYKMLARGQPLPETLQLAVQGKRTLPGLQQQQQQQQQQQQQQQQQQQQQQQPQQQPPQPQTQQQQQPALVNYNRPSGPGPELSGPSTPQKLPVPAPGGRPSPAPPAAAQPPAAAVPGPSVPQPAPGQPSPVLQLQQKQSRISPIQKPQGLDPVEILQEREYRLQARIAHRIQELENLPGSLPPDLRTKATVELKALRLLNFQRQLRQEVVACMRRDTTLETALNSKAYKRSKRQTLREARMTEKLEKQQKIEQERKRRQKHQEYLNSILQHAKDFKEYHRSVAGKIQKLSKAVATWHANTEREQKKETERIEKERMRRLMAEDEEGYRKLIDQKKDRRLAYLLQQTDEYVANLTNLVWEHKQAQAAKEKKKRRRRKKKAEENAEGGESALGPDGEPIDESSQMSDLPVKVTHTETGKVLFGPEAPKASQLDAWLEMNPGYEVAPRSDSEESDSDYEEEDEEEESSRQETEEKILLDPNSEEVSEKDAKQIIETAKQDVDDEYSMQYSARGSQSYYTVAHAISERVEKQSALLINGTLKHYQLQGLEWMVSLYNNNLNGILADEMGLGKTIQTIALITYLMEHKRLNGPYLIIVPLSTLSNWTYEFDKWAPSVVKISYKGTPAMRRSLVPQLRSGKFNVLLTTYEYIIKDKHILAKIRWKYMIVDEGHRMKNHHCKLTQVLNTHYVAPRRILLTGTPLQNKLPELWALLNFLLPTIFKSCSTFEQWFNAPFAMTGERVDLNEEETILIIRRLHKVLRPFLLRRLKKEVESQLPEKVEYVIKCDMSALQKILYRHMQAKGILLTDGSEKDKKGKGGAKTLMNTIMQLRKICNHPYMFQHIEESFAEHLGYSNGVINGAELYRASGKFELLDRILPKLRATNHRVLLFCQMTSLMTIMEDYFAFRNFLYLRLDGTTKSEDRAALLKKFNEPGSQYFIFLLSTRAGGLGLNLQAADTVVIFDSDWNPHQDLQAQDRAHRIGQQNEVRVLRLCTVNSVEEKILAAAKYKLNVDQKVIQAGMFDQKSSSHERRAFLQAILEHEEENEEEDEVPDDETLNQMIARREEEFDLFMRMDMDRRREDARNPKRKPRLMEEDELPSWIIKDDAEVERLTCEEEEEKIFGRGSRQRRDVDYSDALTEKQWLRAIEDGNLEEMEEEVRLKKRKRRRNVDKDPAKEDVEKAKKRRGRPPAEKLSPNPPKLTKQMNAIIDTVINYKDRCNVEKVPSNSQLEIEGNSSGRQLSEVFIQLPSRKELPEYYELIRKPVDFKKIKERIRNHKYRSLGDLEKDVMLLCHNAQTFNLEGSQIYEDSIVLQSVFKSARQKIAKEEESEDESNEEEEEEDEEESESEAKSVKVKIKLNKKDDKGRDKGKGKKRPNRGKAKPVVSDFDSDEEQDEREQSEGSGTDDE
Outline: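 HeLa cells stably expressing HiBiT-BRM were treated for 24 h with compounds (10-point 3-fold dilutions, 30 μM final top dose, in duplicate). HiBiT was detected by lytic LgBiT complementation luminescence. % degradation was normalized to DMSO (high control) and 2 μM of a reference BRM/BRG1 degrader (low control).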

| SMILES | DC50 [1] [µM] | Dmax [1] [%] | DC50 (HiBit-BRM fusion protein) [µM] | BRM HiBit Degradation Maximum measured (HiBit-BRM fusion protein) |
| --- | --- | --- | --- | --- |
| Cc1c(C(=O)NCC(=O)Nc2nc(-c3cccc(-c4ccnc(N(C)CC(=O)N5CCC(C6CCN(C(=O)COc7cccc8c7C(=O)N(C7CCC(=O)NC7=O)C8=O)CC6)CC5)c4)c3)cs2)cn(S(=O)(=O)C(C)C)c1C (stereo not shown) [Compound 116, N-(2-((4-(3-(2-((2-(1′-(2-((2-(2,6-dioxopiperidin-3-yl)-1,3-dioxoisoindolin-4-yl)oxy)acetyl)-[4,4′-bipiperidin]-1-yl)-2-oxoethyl)(methyl)amino)pyridin-4-yl)phenyl)thiazol-2-yl)amino)-2-oxoethyl)-1-(isopropylsulfonyl)-4,5-dimethyl-1H-pyrrole-3-carboxamide] | > 10 | < 50 | > 10 | C (‘C’ = Maximum degradation <50%) |
| Cc1ncsc1-c1ccc(CNC(=O)[C@@H]2C[C@@H](O)CN2C(=O)[C@@H](NC(=O)CCCCCCCCCCCCC(=O)NCc2cccc(-c3cccc(-c4csc(NC(=O)CNC(=O)c5ccn(S(C)(=O)=O)c5)n4)c3)c2)C(C)(C)C)cc1 [Compound 118, N1-((S)-1-((2S,4R)-4-hydroxy-2-((4-(4-methylthiazol-5-yl)benzyl)carbamoyl)pyrrolidin-1-yl)-3,3-dimethyl-1-oxobutan-2-yl)-N14-((3′-(2-(2-(1-(methylsulfonyl)-1H-pyrrole-3-carboxamido)acetamido)thiazol-4-yl)-[1,1′-biphenyl]-3-yl)methyl)tetradecanediamide] | 0.1 to 1 | 50 to 75 | 0.1 to 1 | B (‘B’ = Maximum degradation ≥50% and ≤75%) |
| Cc1ncsc1-c1ccc(CNC(=O)[C@@H]2C[C@@H](O)CN2C(=O)[C@@H](NC(=O)CCCCCCCCCCCCCCC(=O)NCc2cccc(-c3cccc(-c4csc(NC(=O)CNC(=O)c5ccn(S(C)(=O)=O)c5)n4)c3)c2)C(C)(C)C)cc1 [Compound 120, N1-((S)-1-((2S,4R)-4-hydroxy-2-((4-(4-methylthiazol-5-yl)benzyl)carbamoyl)pyrrolidin-1-yl)-3,3-dimethyl-1-oxobutan-2-yl)-N16-((3′-(2-(2-(1-(methylsulfonyl)-1H-pyrrole-3-carboxamido)acetamido)thiazol-4-yl)-[1,1′-biphenyl]-3-yl)methyl)hexadecanediamide] | > 10 | < 50 | > 10 | C (‘C’ = Maximum degradation <50%) |
| Cc1ncsc1-c1ccc(CNC(=O)[C@@H]2C[C@@H](O)CN2C(=O)[C@@H](NC(=O)COCCOCCOCCOCC(=O)NCc2cccc(-c3cccc(-c4csc(NC(=O)CNC(=O)c5ccn(S(C)(=O)=O)c5)n4)c3)c2)C(C)(C)C)cc1 [Compound 121, N1-((S)-1-((2S,4R)-4-hydroxy-2-((4-(4-methylthiazol-5-yl)benzyl)carbamoyl)pyrrolidin-1-yl)-3,3-dimethyl-1-oxobutan-2-yl)-N14-((3′-(2-(2-(1-(methylsulfonyl)-1H-pyrrole-3-carboxamido)acetamido)thiazol-4-yl)-[1,1′-biphenyl]-3-yl)methyl)-3,6,9,12-tetraoxatetradecane-1,14-diamide] | 1 to 10 | 50 to 75 | 1 to 10 | B (‘B’ = Maximum degradation ≥50% and ≤75%) |
| Cc1cc(C(=O)NCC(=O)Nc2nc(-c3cccc(-c4ccnc(N(C)CC(=O)NCCOCCOCCNc5cccc6c5C(=O)N(C5CCC(=O)NC5=O)C6=O)c4)c3)cs2)cn1S(C)(=O)=O (stereo not shown) [Compound 122, N-(2-((4-(3-(2-((2-((2-(2-(2-((2-(2,6-dioxopiperidin-3-yl)-1,3-dioxoisoindolin-4-yl)amino)ethoxy)ethoxy)ethyl)amino)-2-oxoethyl)(methyl)amino)pyridin-4-yl)phenyl)thiazol-2-yl)amino)-2-oxoethyl)-5-methyl-1-(methylsulfonyl)-1H-pyrrole-3-carboxamide] | > 10 | < 50 | > 10 | C (‘C’ = Maximum degradation <50%) |
| Cc1c(C(=O)NCC(=O)Nc2nc(-c3cccc(-c4ccnc(N(C)CC(=O)N5CCC(C6CCN(C(=O)COc7cccc8c7C(=O)N(C7CCC(=O)NC7=O)C8=O)CC6)CC5)c4)c3)cs2)cn(S(C)(=O)=O)c1C (stereo not shown) [Compound 123, N-[2-[[4-[3-[2-[[2-[4-[1-[2-[2-(2,6-dioxo-3-piperidyl)-1,3-dioxo-isoindolin-4-yl]oxyacetyl]-4-piperidyl]-1-piperidyl]-2-oxo-ethyl]-methyl-amino]-4-pyridyl]phenyl]thiazol-2-yl]amino]-2-oxo-ethyl]-4,5-dimethyl-1-methylsulfonyl-pyrrole-3-carboxamide] | > 10 | < 50 | > 10 | C (‘C’ = Maximum degradation <50%) |
| Cc1ncsc1-c1ccc(CNC(=O)[C@@H]2C[C@@H](O)CN2C(=O)[C@@H](NC(=O)CCCCCCCCCCCCCCCC(=O)NCc2cccc(-c3cccc(-c4csc(NC(=O)CNC(=O)c5ccn(S(C)(=O)=O)c5)n4)c3)c2)C(C)(C)C)cc1 [Compound 124, N1-((S)-1-((2S,4R)-4-hydroxy-2-((4-(4-methylthiazol-5-yl)benzyl)carbamoyl)pyrrolidin-1-yl)-3,3-dimethyl-1-oxobutan-2-yl)-N17-((3′-(2-(2-(1-(methylsulfonyl)-1H-pyrrole-3-carboxamido)acetamido)thiazol-4-yl)-[1,1′-biphenyl]-3-yl)methyl)heptadecanediamide] | > 10 | < 50 | > 10 | C (‘C’ = Maximum degradation <50%) |
| Cc1cc(C(=O)NCC(=O)Nc2nc(-c3cccc(-c4ccnc(N(C)CC(=O)NCCCCCNc5cccc6c5C(=O)N(C5CCC(=O)NC5=O)C6=O)c4)c3)cs2)cn1S(C)(=O)=O (stereo not shown) [Compound 125, N-(2-((4-(3-(2-((2-((5-((2-(2,6-dioxopiperidin-3-yl)-1,3-dioxoisoindolin-4-yl)amino)pentyl)amino)-2-oxoethyl)(methyl)amino)pyridin-4-yl)phenyl)thiazol-2-yl)amino)-2-oxoethyl)-5-methyl-1-(methylsulfonyl)-1H-pyrrole-3-carboxamide] | > 10 | < 50 | > 10 | C (‘C’ = Maximum degradation <50%) |
| Cc1ncsc1-c1ccc(CNC(=O)[C@@H]2C[C@@H](O)CN2C(=O)[C@@H](NC(=O)CCCCCCCCCCCCCC(=O)NCc2cccc(-c3cccc(-c4csc(NC(=O)CNC(=O)c5ccn(S(C)(=O)=O)c5)n4)c3)c2)C(C)(C)C)cc1 [Compound 126, N′-[(1S)-1-[(2S,4R)-4-hydroxy-2-[[4-(4-methylthiazol-5-yl)phenyl]methylcarbamoyl]pyrrolidine-1-carbonyl]-2,2-dimethyl-propyl]-N-[[3-[3-[2-[[2-[(1-methylsulfonylpyrrole-3-carbonyl)amino]acetyl]amino]thiazol-4-yl]phenyl]phenyl]methyl]pentadecanediamide] | 0.1 to 1 | 50 to 75 | 0.1 to 1 | B (‘B’ = Maximum degradation ≥50% and ≤75%) |

Further lines, results first:

| DC50 [1] [µM] | Dmax [1] [%] | DC50 (HiBit-BRM fusion protein) [µM] | BRM HiBit Degradation Maximum measured (HiBit-BRM fusion protein) | SMILES |
| --- | --- | --- | --- | --- |
| > 10 | < 50 | > 10 | C (‘C’ = Maximum degradation <50%) | CN(CCNC(=O)C1(c2cc(-c3cccc(-c4csc(NC(=O)CNC(=O)c5ccn(S(C)(=O)=O)c5)n4)c3)ccn2)CC1)CCOCCOc1cccc2c1C(=O)N(C1CCC(=O)NC1=O)C2=O (stereo not shown) [Compound 112, N-(2-((4-(3-(2-(1-((2-((2-(2-((2-(2,6-dioxopiperidin-3-yl)-1,3-dioxoisoindolin-4-yl)oxy)ethoxy)ethyl)(methyl)amino)-ethyl)carbamoyl)cyclopropyl)-pyridin-4-yl)phenyl)thiazol-2-yl)amino)-2-oxoethyl)-1-(methylsulfonyl)-1H-pyrrole-3-carboxamide] |
| < 0.1 | > 75 | < 0.1 | A (‘A’ = Maximum degradation >75%) | CS(=O)(=O)n1ccc(C(=O)NCC(=O)Nc2nc(-c3cccc(-c4ccnc(C5(C(=O)NC6CCN(CCOc7ccc8c(c7)C(=O)N(C7CCC(=O)NC7=O)C8=O)CC6)CC5)c4)c3)cs2)c1 (stereo not shown) [Compound 113] |
| 0.1 to 1 | > 75 | 0.1 to 1 | A (‘A’ = Maximum degradation >75%) | Cc1ncsc1-c1ccc(CNC(=O)[C@@H]2C[C@@H](O)CN2C(=O)[C@@H](NC(=O)CCCCCCCCCCC(=O)NCc2cccc(-c3cccc(-c4csc(NC(=O)CNC(=O)c5ccn(S(C)(=O)=O)c5)n4)c3)c2)C(C)(C)C)cc1 [Compound 119, N1-((S)-1-((2S,4R)-4-hydroxy-2-((4-(4-methylthiazol-5-yl)benzyl)carbamoyl)pyrrolidin-1-yl)-3,3-dimethyl-1-oxobutan-2-yl)-N12-((3′-(2-(2-(1-(methylsulfonyl)-1H-pyrrole-3-carboxamido)acetamido)thiazol-4-yl)-[1,1′-biphenyl]-3-yl)methyl)dodecanediamide] |
| > 10 | < 50 | > 10 | C (‘C’ = Maximum degradation <50%) | CS(=O)(=O)n1ccc(C(=O)NCC(=O)Nc2nc(-c3cccc(-c4ccnc(C5(C(=O)NCCOCCOCCNC(=O)COc6cccc7c6C(=O)N(C6CCC(=O)NC6=O)C7=O)CC5)c4)c3)cs2)c1 (stereo not shown) [Compound 128] |
